Data as given in US20140296216A1, “PYRIMIDO[4,5-D]PYRIMIDINYL COMPOUNDS, PHARMACEUTICAL COMPOSITIONS AND USES THEREOF” (GUANGZHOU INSTITUTE OF BIOMEDICINE AND HEALTH, CHINESE …, priority 2011, published 2014).

Tests used:
[1] = biological target: EGFRWT (Homo sapiens, UniProt P00533); test: In vitro enzymatic activity assay (Z'-LYTE), wild type EGFR; type: biochemical; conditions: Z'-LYTE FRET peptide assay; read-out: EGFRWT kinase activity (IC50)
Summary of the method: (§1)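 Z'-LYTE FRET coupled-enzyme format: kinase phosphorylates FRET peptide substrate, then after one hour a site-specific protease cleaves non-phosphorylated peptide. After another hour, excitation at 400 nm and emission read at 445 and 520 nm.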

[2] = biological target: T1, EGFR T790M kinase (Homo sapiens, UniProt P00533, T790M); test: In vitro enzymatic activity assay (Z'-LYTE), EGFR T790M; type: biochemical; conditions: Z'-LYTE FRET peptide assay; read-out: EGFRT790M kinase activity (IC50)
T1 construct: purchased invitrogen PV4803
Summary of the method: as §1

[3] = biological target: EGFRL858R (Homo sapiens, UniProt P00533, L858R); test: In vitro enzymatic activity assay (Z'-LYTE), EGFR L858R; type: biochemical; conditions: Z'-LYTE FRET peptide assay; read-out: EGFRL858R kinase activity (IC50)
Summary of the method: as §1

[4] = biological target: EGFRL861Q (Homo sapiens, UniProt P00533, L861Q); test: In vitro enzymatic activity assay (Z'-LYTE), EGFR L861Q; type: biochemical; conditions: Z'-LYTE FRET peptide assay; read-out: EGFRL861Q kinase activity (IC50)
Summary of the method: as §1

[5] = biological target: EGFRL858R + T790M (Homo sapiens, UniProt P00533, L858R/T790M); test: In vitro enzymatic activity assay (Z'-LYTE), EGFR L858R + T790M; type: biochemical; conditions: Z'-LYTE FRET peptide assay; read-out: EGFRL858R + T790M kinase activity (IC50)
Summary of the method: as §1

[6] = system: H1975 (lung cancer cells, EGFR L858R&T790M); test: Cell proliferation by MTT, H1975; type: cell-based; conditions: Homo sapiens, NCI-H1975, read-out: H1975 50% inhibitory concentration (IC50), 72 h
[7] = system: HCC827 (lung cancer cells, EGFR E746-A750 deletion); test: Cell proliferation by MTT, HCC827; type: cell-based; conditions: Homo sapiens, HCC827, read-out: HCC827 50% inhibitory concentration (IC50), 72 h
[8] = system: A431 (Human epidermal carcinoma, EGFR high expression); test: Cell proliferation by MTT, A431; type: cell-based; conditions: A-431, read-out: A431 50% inhibitory concentration (IC50), 72 h
[9] = system: NCI-H820 (lung cancer cells); test: Cell proliferation by MTT, NCI-H820; type: cell-based; conditions: NCI-H820, read-out: NCI-H820 50% inhibitory concentration (IC50), 72 h
[10] = system: H1975 cell; test: Effect on cell cycle by PI; type: cell-based; conditions: PI staining, 24, 48 h; FIGS. 27, 28
Description: Detecting the effect of the compounds on cell cycle by PI: 8×10^5 cells/well, NCI-H820, A431, HCC827, EGFR E746-A750 deletion, H1975 were plated in 6-well plates, and 24 h later, treated with the compounds at various concentrations and a control (1% DMSO) for 24, 48 h. Cells were trypsined, collected and then centrifuged for 10 minutes. The cells were re-suspended in PBS to get a suspension and then the suspension (500 g) centrifuged for 10 min; this step was repeated twice: firstly 300 uL pre-cooled PBS was added and mixed, then 700 uL pre-cooled (i.e. −20° C.) anhydrous ethanol was added and mixed, placed in −20° C. for 24 h. The mixture was 5000 rpm centrifuged for 2 min, washed by PBS twice, resuspended with 200 uL PBS (it needs to ensure the cell concentration as about […]), added RNase to achieve the final concentration of 50 ug/mL, and […] at 37° C. for 30 min. The mixture was added PI achieve the final concentration of 10 ug/mL, dyed in dark for 30 min, and then detected within 1 h.

[11] = system: H1975 cell; test: Effect on cell apoptosis by Annexin V; type: cell-based; conditions: PE-Annexin V, 24, 48 h; FIG. 29
Description: Detecting the effect of the compounds on cell apoptosis by Annexin V: 8×10^5 cells/well, NCI-H820, A431, HCC827, EGFR E746-A750 deletion, H1975 were plated in 6-well plates, and 24 h later, treated with the compounds at various concentrations and a control (1% DMSO) for 24, 48 h. Growth medium was collected and cells were trypsined and collected correspondingly to the medium. Suspension (500 g) was centrifuged for 10 minutes. The cells were re-suspended in PBS to get a suspension and then the suspension (500 g) centrifuged for 10 min; this step was repeated twice. The cells were re-suspended in binding buffer, 5×10^5-1×10^6 cells/mL. PE-Annexin V (556421, BD Pharmingen) […] respectively. The cells were incubated for 15 min at RT in the dark. The samples were detected with FACS Calibur flow cytometer (Becton Dickinson).

[12] = system: EGFR phosphorylation in H1975 Cell; test: Western Blot, cell signaling pathway in H1975 cell; type: cell-based; conditions: FIG. 30
Description: Conventional Western Blot (Immune blotting method) was used, wherein the method includes four steps: sample preparation, electrophoretic separation, film transfer of protein, and immuno hybridization and color display (protein detection). Sample preparation • 1. culturing cells or treating the cells with drugs; • 2. discarding mediums, washing the cells with 1×PBS twice to completely remove the mediums; • 3. adding 1×SDS sample buffer (6-well plate, 100 μl/w or 75 cm^2 plate, 500-1000 μl/bottle), scrapping the cells and transferring them to Ep tube; • 4. ultrasonic shearing DNA for 10-15 seconds to reduce the viscosity of the sample; • 5. boiling the sample for 5 minutes; • 6. centrifuging 12000 g sample for 5 minutes and taking the supernatant. […]

EGFRL858R, sequence (P00533 25-1210 L858R): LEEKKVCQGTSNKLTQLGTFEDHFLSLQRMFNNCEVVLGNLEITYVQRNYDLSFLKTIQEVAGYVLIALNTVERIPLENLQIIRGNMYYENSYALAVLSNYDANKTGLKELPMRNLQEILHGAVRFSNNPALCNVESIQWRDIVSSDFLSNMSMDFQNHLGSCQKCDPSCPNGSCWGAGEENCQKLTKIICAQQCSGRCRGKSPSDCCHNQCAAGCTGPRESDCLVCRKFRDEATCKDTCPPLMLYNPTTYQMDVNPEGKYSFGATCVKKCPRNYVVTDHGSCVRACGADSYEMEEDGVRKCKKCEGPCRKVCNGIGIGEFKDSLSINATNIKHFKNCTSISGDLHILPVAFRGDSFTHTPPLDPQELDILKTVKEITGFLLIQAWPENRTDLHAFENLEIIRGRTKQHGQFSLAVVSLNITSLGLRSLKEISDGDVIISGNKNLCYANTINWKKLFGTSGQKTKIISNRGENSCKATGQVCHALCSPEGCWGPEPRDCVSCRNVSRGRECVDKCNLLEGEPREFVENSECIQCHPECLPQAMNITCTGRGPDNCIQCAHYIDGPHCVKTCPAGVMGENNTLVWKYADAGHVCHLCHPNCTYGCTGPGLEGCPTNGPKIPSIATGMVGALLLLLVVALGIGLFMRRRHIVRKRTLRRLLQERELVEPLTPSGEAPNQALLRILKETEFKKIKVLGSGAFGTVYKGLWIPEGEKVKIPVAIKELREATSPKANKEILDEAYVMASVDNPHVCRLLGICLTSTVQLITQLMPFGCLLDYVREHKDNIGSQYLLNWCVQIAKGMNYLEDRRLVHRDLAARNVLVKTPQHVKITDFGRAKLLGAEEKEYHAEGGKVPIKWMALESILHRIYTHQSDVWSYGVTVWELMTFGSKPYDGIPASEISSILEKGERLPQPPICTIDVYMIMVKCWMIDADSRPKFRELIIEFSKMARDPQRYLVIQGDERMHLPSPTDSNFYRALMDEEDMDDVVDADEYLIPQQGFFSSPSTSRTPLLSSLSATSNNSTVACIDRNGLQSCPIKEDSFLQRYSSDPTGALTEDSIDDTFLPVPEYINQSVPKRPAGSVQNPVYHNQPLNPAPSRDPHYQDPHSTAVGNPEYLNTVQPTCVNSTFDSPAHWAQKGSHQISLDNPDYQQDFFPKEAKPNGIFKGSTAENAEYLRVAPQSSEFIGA
EGFRL861Q, sequence (P00533 25-1210 L861Q): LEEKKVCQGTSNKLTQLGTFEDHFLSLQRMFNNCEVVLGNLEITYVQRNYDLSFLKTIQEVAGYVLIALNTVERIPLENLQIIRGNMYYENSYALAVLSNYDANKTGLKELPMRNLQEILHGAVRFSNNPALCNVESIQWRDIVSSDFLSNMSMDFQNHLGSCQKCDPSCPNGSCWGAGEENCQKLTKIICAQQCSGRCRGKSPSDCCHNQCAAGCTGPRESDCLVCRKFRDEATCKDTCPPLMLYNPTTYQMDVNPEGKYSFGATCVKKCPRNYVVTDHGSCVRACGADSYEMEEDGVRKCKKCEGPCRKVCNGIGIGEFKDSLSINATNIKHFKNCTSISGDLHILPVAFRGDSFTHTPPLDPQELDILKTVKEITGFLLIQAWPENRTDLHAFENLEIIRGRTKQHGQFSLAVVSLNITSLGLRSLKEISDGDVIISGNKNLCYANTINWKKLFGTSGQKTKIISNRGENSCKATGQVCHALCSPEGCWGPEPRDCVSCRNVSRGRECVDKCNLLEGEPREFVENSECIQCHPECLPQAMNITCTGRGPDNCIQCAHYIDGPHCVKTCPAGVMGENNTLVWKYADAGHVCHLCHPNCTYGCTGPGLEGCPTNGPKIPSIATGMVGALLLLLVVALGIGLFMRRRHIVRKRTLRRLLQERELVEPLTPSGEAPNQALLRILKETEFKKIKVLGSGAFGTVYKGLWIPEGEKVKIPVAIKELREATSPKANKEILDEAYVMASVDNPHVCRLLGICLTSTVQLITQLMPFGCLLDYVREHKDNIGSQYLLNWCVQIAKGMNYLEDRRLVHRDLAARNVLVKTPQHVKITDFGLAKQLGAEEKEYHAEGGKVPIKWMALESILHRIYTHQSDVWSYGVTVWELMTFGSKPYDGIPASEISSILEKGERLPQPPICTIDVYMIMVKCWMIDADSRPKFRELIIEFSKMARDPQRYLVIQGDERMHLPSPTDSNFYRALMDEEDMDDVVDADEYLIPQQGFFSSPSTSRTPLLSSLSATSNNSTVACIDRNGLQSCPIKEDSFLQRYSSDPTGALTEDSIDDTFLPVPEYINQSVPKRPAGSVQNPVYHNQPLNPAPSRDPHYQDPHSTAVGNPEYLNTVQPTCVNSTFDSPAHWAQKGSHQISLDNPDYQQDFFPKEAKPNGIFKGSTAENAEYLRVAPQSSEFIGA
T1 sequence (P00533 25-1210 T790M): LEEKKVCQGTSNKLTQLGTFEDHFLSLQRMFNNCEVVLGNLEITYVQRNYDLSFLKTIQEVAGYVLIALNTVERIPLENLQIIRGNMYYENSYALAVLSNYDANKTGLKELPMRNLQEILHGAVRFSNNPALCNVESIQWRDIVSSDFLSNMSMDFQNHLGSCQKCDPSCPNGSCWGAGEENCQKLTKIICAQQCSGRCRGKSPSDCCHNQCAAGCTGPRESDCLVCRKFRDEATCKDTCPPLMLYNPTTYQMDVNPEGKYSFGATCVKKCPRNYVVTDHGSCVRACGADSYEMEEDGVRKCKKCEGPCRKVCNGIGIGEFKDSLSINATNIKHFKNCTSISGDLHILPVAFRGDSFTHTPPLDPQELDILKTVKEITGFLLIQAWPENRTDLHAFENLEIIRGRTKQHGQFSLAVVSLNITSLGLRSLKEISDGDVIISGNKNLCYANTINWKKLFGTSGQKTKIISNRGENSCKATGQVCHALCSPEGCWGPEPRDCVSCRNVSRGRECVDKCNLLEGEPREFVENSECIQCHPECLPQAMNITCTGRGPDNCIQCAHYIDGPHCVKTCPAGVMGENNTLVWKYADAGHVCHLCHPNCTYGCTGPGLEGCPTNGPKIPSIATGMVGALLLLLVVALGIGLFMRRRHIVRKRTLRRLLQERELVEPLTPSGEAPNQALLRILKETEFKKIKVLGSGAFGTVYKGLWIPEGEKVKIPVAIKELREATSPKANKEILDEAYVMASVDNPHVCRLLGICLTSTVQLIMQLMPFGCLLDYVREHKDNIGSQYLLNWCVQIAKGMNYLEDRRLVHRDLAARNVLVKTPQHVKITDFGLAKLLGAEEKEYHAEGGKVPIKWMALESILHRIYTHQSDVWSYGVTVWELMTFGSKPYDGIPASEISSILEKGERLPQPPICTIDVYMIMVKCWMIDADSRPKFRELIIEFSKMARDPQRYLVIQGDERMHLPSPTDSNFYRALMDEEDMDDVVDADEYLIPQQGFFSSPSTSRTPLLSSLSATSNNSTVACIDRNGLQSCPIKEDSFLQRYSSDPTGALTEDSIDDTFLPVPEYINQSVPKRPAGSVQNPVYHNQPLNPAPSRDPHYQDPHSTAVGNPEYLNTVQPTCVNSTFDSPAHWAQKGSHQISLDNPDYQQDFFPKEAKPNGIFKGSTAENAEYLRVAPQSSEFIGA
EGFRWT, sequence (P00533 25-1210): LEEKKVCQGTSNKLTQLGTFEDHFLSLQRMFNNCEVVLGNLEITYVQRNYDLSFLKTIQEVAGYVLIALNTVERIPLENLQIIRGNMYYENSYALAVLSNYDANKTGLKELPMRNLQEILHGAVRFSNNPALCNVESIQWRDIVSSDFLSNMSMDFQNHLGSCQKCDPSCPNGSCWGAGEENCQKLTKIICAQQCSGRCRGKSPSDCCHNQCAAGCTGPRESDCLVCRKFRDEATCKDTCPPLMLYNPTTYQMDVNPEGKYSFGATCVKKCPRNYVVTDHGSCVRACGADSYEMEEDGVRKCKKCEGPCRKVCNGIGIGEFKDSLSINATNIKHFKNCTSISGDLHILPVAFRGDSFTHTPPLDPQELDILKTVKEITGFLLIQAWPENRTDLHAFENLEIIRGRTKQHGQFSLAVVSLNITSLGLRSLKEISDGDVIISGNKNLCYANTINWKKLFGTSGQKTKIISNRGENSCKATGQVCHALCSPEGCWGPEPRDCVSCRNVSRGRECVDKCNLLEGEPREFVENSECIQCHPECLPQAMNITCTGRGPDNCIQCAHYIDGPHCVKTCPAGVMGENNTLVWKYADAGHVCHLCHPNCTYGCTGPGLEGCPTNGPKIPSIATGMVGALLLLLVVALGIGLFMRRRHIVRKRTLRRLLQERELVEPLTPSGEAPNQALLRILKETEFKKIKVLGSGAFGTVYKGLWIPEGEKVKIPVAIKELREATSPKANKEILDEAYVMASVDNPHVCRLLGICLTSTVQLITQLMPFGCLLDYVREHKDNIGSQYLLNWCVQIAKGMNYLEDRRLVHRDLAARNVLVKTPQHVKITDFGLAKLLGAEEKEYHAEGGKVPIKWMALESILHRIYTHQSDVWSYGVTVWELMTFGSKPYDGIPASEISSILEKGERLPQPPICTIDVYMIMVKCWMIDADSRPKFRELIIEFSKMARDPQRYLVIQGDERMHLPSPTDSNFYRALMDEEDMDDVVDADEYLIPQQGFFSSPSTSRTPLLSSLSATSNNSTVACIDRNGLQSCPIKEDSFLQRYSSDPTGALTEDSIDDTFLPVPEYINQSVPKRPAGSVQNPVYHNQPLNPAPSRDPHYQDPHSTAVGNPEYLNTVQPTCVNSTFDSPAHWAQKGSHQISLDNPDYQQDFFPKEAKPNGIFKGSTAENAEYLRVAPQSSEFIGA

IC50 [1]: ≤ 10 nM | IC50 [2]: ≤ 10 nM | IC50 [3]: ≤ 10 nM | IC50 [4]: ≤ 10 nM | IC50 [5]: ≤ 10 nM | IC50 [6]: 85 nM | IC50 [7]: 52 nM | IC50 [8]: 2930 nM | IC50 [9]: > 100 µM
Compound: C=CC(=O)Nc1cccc(N2C(=O)N(C)Cc3cnc(Nc4ccc(N5CCN(C)CC5)cc4OC)nc32)c1 [C-EGF06, N-(3-(7-(2-methoxy-4-(4-methylpiperazin-1-yl)phenylamino)-3-methyl-2-oxo-3,4-dihydropyrimido[4,5-d]pyrimidin-1(2H)-yl)phenyl)acrylamide]
cell cycle arrest [10]: significantly induce | cell apoptosis [11]: significantly induce | EGFR phosphorylation arrest [12]: significantly induce EGFR phosphorylation arrest | downstream pathway phosphorylation [12]: further block
